According to patent US11344534B2, “Cholinergic agonism for the treatment of pancreatic cancer” (priority 2017, dated 2022):
Entries after “also recorded” stand apart in the source; their conditions may differ.

Key:
PDA patients = test: Pilot feasibility study of bethanechol in patients with resectable PDA; type: in vivo, human
Experimental: Our ongoing pilot feasibility study assesses the impact of 1 week of a fixed dose of bethanechol on pharmacodynamics endpoints in resected pancreatic cancer specimens. […] Subjects receive 100 mg of bethanechol by mouth twice daily for 1 week, discontinuing bethanechol 24 hours prior to scheduled surgery. All subjects will be assessed for toxicity while receiving bethanechol, and for 30 days thereafter. The primary endpoint in the pilot study is a change in cell proliferation (Ki-67 index). […] We will compare gene expression profiles and regulatory networks between treated samples with matched controls in our dataset of >200 PDA, RNAseq analysis will be performed.

KC mice = test: Vagotomized KC mice (KC+VxPP) treated with bethanechol in drinking water; type: in vivo, mouse; settings: for pancreatic tumor (PDAC) incidence: bethanechol 400 μg/ml in drinking water, at 20 weeks; for pancreatic CD44 expression: bethanechol vs KC+VxPP controls, immunostaining
Experimental: Thus, KC mice that underwent vagotomy treated with or without Bethanechol, a broad muscarinic agonist, were compared. Bethanechol treatment (400 μg/ml) started immediately after receiving surgery and continued till 20 weeks.
K-Ras^+/LSL-G12D, p53^+/R172H, and Pdx-1-Cre mice were provided by Dr. Kenneth Olive (Columbia University). M1RKO mice were purchased from the Jackson Laboratory. KC mice and KPC mice were crossed with M1RKO mice. For several experiments, KC mice received pyloroplasty with or without vagotomy at 8 weeks and KC+VxPP mice were treated with or without bethanechol (400 μg/ml) after surgery immediately. They were sacrificed at 20 weeks. In addition, KPC mice were treated with gemcitabine biweekly and with or without bethanechol when the tumor size of 3-5 mm detected using ultrasound. They were sacrificed when the mice were moribund. For liver metastatic experiments, WT type C57/B6 mice received spleen injection and hemi-splenectomy. […] They were sacrificed when the mice were moribund.
Bethanechol treatment (400 μg/ml in drinking water) was started in KC mice at 8 weeks, immediately after the mice received surgery, and continued until 20 weeks of age.
(§1) LSL-Kras^+/LSL-G12D, LSL-Trp53^+/R172H, and Pdx1-Cre mice were bred by Dr. Kenneth P. Olive and co-workers. Chrm1KO mice (C57BL/6-Chrm1tm1 Stl/J, (M1RKO) mice^1 were purchased from the Jackson Laboratory. KC mice and KPC mice were crossed with M1RKO mice. In the vagotomy experiments, KC mice received pyloroplasty with or without vagotomy at 8 weeks, and some KC+VxPP mice were treated with bethanechol ([…] in drinking water) immediately after surgery and then sacrificed at 20 weeks. KPC mice in treatment studies were palpated weekly for tumors in the pancreas. Once a tumor was suspected, KPC mice were screened by VEVO 2100—Ultrasound Imaging System (FUJIFILM VisualSonics) for pancreatic cancer. KPC mice were treated with gemcitabine, given by i.p. injection 100 mg/kg biweekly, with or without bethanechol, when a tumor size of 3-5 mm was detected using ultrasound. Mice were sacrificed when the mice were moribund. NOD/SCID mice were implanted with Panc1 cells subcutaneously and sacrificed at 30 days after implantation. For liver metastatic experiments, WT type C57/B6 mice received a splenic injection of labeled Panc02 cells, followed by hemi-splenectomy. The mice were then divided into three groups. […] Mice were then sacrificed when moribund. At necropsy, hepatic metastases that could clearly be identified as tumor nodules on gross inspection were separated. All animal studies and procedures were approved by the IACUC committee at Columbia University. All mice were bred under specific pathogen free conditions. Comparisons were made with age- and sex-matched control animals.
5 μm paraffin embedded or PFA-fixed frozen sections were prepared for immunohistochemistry and immunofluorescence, respectively. For immunofluorescence, slides were washed with 1% Triton X-100 in PBS, rinsed and blocked for 30 min with 2% bovine serum albumin (BSA—Sigma-Aldrich). Primary antibodies and fluorophore-conjugated secondary antibodies were diluted in 2% BSA and incubated over night at 4° C. The following primary antibodies were used; Chrm1 (1:200 Santa Cruz), Ki67 (1:500 Abcam), p-EGFR (1:200 Abcam), and CD44 (1:200 BIO-RAD). For immunohistochemical staining, slides were deparaffinized in xylene and endogenous peroxidase was blocked by incubation with 3% hydrogen peroxide in methanol for visualization using the peroxidase reaction.

Panc1 cells [1] = test: RNAseq of Panc1 cells after pilocarpine treatment; type: cell-based, human
Experimental: Panc1 cells were lysed in RNA lysis buffer supplied in […] PicoPure RNA isolation kit (Life Technologies)(n=4). Total RNA was isolated in accordance with the manufacturer's protocol. cDNA was amplified and libraries were constructed by using SMARTer Ultra Low Input RNA Kit (Clontech Laboratories) and Nextera XT DNA Library Preparation Kit (Illumina) according to the respective manufacturer's instructions. Sequencing was performed with Hiseq 2500 (Illumina) (30 M 100 bp single end reads per sample). Sequenced reads were mapped to the NCBI annotated genes of the […] with BowTie2 and TopHat 2.0.4^5, 6. Reads were counted with HTSeq. Expression datasets were deposited in the Gene Expression Omnibus (GEO)^7 (GSE102880 code: armlggayprundsh). Samples were normalized with the TMM algorithm. The statistical significance of differential expression was estimated with weighted Limma-Voom^8, 9 which runs under Bioconductor/R^10-12. […] First, a screen in terms of Gene Ontology^14 categories for consistency with phenotype was performed. Genes were retained which either: 57 genes fulfilled these requirements, these genes were analyzed further in terms of KEGG pathways^15 with iPathwayGuide^16, 17

Panc1 cells [2] = test: Subcutaneous implantation of 25,000 pilocarpine-pretreated Panc1 cells into NOD/SCID mice; type: in vivo, mouse; settings: 25,000 Panc1 cells pretreated with pilocarpine for 72 hours vs untreated Panc1 cells
Experimental: To address the possible parasympathetic effects on sternness, human pancreatic cancer cells (Panc1 and BxPC3) were treated with pilocarpine.
To address the possible parasympathetic effects on stemness, human pancreatic cancer cells (Panc1 and BxPC3) were treated with pilocarpine.
as §1

Panc1 cells [3] = test: Soft agar assay, human cells; type: cell-based; settings: human cancer cells (Panc1)
murine K8282 cells = test: Western blot of EGFR/MAPK and PI3K/AKT signaling, K8282; type: cell-based, mouse
Experimental: To analyze EGFR and the MAPK and PI3K-Akt pathway in human and murine pancreatic cancer cell lines, cells were grown in 12-well plate to around ˜70% confluent, changed the 0.5% FBS medium, added the drugs respectively and incubated them for further 72 hrs incubation in a typical CO2 incubator (˜20% O2). After removing the medium, cells were washed twice with PBS, and protein extraction was performed on ice using RIPA buffer with protease inhibitor (Complete) (Roche) cocktail and phosphatase inhibitor (phosSTOP) (Roche). Protein samples were subsequently separated in 10% Bis-Tris Gel NuPAGE® electrophoresis using MES SDS Running Buffer (Invitrogen, CA, USA). After transfer to nitrocellulose, membranes were blocked with 5% BSA, and samples were probed with the following primary antibodies: p-EGFR (Cell Signaling), EGFR (Cell Signaling), p-BRAF (Cell Signaling), BRAF (Cell Signaling), p-ERK1/2 (phosphorylated p44/42 MAPK) (Thr202/Tyr204) (Cell Signaling), ERK1/2 (p44/42 MAPK) (Thr202/Tyr204) (Cell Signaling), p-PI3K (Cell Signaling), PI3K (Cell Signaling), p-Akt (Cell Signaling), Akt (Cell Signaling), and β-actin (Cell Signaling) followed by horseradish peroxidase-coupled secondary antibody. Immunoreactive bands were visualized using 5-bromo-4-chloro-3-indolyl phosphate/nitro blue tetrazolium and bands were quantified with ImageJ.
To analyze EGFR, MAPK and PI3K-AKT pathways in human and murine pancreatic cancer cell lines, cells were grown in 12-well culture plates to ˜70% confluency. The medium was then changed to 0.5% FBS medium, the respective drugs were added, and they were incubated for an additional 72 hours in a CO2 incubator (˜5% CO2). After removing the medium, cells were washed twice with PBS, and protein extraction was performed on ice using RIPA buffer with protease inhibitor (Complete, Roche) cocktail and a phosphatase inhibitor (phosSTOP, Roche). Protein samples were subsequently separated by 10% Bis-Tris Gel NuPAGE® electrophoresis using MES SDS Running Buffer (Invitrogen, CA, USA). After transfer to nitrocellulose, membranes were blocked with 5% BSA, and samples were probed with the following primary antibodies: p-EGFR (Cell Signaling), EGFR (Cell Signaling), p-BRAF (Cell Signaling), BRAF (Cell Signaling), p-ERK1/2 (phosphorylated p44/42 MAPK) (Thr202/Tyr204) (Cell Signaling), ERK1/2 (p44/42 MAPK) (Thr202/Tyr204) (Cell Signaling), p-PI3K (Cell Signaling), PI3K (Cell Signaling), p-AKT (Cell Signaling), AKT (Cell Signaling), and β-actin (Cell Signaling) followed by horseradish peroxidase-coupled secondary antibody. Immunoreactive bands were visualized using 5-bromo-4-chloro-3-indolyl phosphate/nitro blue tetrazolium and bands were quantified with ImageJ.

[4] = tested on: human PDAC cell lines (MiaPaca2, Panc1); test: MTT assay, human PDAC cell lines; type: cell-based
Experimental: Cell proliferation in each cell line was assessed with a 3-(4,5-dimethylthiazol-2yl)-2,5-diphenyltetrazolium bromide (MTT) assay kit (Sigma) in accordance with the manufacturer's instructions. 3×10^3 cells were grown in 96-well plate to around ˜70% confluent, changed the 0.5% FBS medium, added the drugs respectively and incubated them for further 72 hrs incubation in a typical CO2 incubator (˜20% O2). Treated cells were rinsed twice with PBS, incubated in 10 ll MTT solution for 4 hr at 37° C., and 100 uL DMSO was added to each well. The absorbance of each well was measured at 570 nm using Tilter-Tech 96-well multiscanner (Becton Dickinson, Heidelberg, Germany). The relative number of viable cells compared with the number of cells without drug treatment was expressed as percent cell viability using the following formula:
Cell proliferation in each cell line was assessed with a 3-(4,5-dimethylthiazol-2yl)-2,5-diphenyltetrazolium bromide (MTT) assay kit (Sigma) in accordance with the manufacturer's instructions. 3×10^3 cells were grown in 96-well plate to ˜70% confluency, the media was changed to 0.5% FBS medium, the respective drugs were added, and they were incubated for an additional 72 hours in a CO2 incubator (˜5% CO2). Treated cells were rinsed twice with PBS, incubated in 10 ul MTT (5 mg/ml PBS) solution for 4 hours at 37° C., and 100 uL DMSO was then added to each well. The absorbance of each well was measured at 570 nm using a Tilter-Tech 96-well multiscanner (Becton Dickinson, Heidelberg, Germany). The relative number of viable cells compared with the number of cells without drug treatment was expressed as percent cell viability using the following formula: cell viability (%)=A570 of treated cells/A570 of untreated cells.

[5] = vagotomized KC mice, bethanechol treatment
[6] = Panc1 cells, pilocarpine, preliminary analysis
[7] = Panc-1 cells treated with pilocarpine

## CC(C[N+](C)(C)C)OC(N)=O (stereo not drawn) [bethanechol, 2-[(aminocarbonyl)oxy]-N,N,N-trimethyl-1-propanaminium]
PDA patients; PDA patients, bethanechol 100 mg twice daily for 1 week, preliminary pilot data
  plasma TNFα levels: trend towards lower
PDA patients; bethanechol-treated patients compared to untreated patients
  Ki-67, CD44, pERK and p-EGFR (IHC staining of PDA tissue): might lead to a decrease
PDA patients; plasma of a study patient, pre- vs post-treatment, cytokine antibody array
  other cytokine levels such as ICAM-1 and MIF: possible reductions
KC mice; KC mice following vagotomy, bethanechol in drinking water
  M1R expression: reduced
KC mice; KC+VxPP mice, bethanechol 400 μg/ml in drinking water from 8 to 20 weeks, vs untreated KC+VxPP
  PanIN area: significant reduction; also recorded: reduced
KC mice; KC+VxPP mice, vs untreated KC+VxPP
  pancreatic tumor (PDAC) incidence: reduced; also recorded: inhibits
KC mice; KC+VxPP mice, vs untreated KC+VxPP, listed as Bethanechol
  pancreatic tumor (PDAC) incidence: significant reduction; also recorded: significant decrease
KC mice; KC+VxPP mice
  pancreatic CD44 expression: significant decrease; also recorded: reduced
KC mice; KC+VxPP mice, listed as Bethanechol
  pancreatic CD44 expression: reduced
KC mice; vagotomized KC mice, bethanechol 400 μg/ml, vs KC+VxPP control group
  area of inflammation: significant reduction
KC mice; [5]
  accelerated tumorigenesis / PanIN progression after vagotomy (KC phenotype): ameliorated; also recorded: suppresses; also recorded: restored the normal KC phenotype; also recorded: reduces
  expression of p-EGFR, p-PI3K and p-ERK1/2 (immunohistochemical staining): significantly suppressed
  systemic and splenic levels of TNFα, CD11b+ and F4/80+ pancreatic myeloid cells: suppressed
  tumor-associated macrophages (TAM) increased by vagal denervation: abolished
KC mice; vagotomized KC mice, bethanechol treatment, listed as Bethanechol
  accelerated tumorigenesis / PanIN progression after vagotomy (KC phenotype): abrogate; also recorded: suppressed

## CC[C@@H]1C(=O)OC[C@@H]1Cc1cncn1C [pilocarpine, (3S,4R)-3-ethyl-4-[(3-methylimidazol-4-yl)methyl]oxolan-2-one]
Panc1 cells [1]; Panc1 cells, pilocarpine 1 mM, 72 hrs
  expression of growth related genes EGFR and PI3K (RNAseq): suppressed
Panc1 cells [1]; Panc1 cells, pilocarpine treated vs untreated
  expression of PIK3CA(PI3K), EGFR, KDR(RTK), ITGAV(ITGA), NTRKB(TRKB) and BRAF(RafB) (RNAseq, KEGG pathways): downregulated
Panc1 cells [1]; [6]
  expression of BDNF and NGF: moderately decreased
  expression of TRK-B receptor (NTRK2): one of the most downregulated genes
Panc1 cells [1]; [7]
  expression of BRAF, EGFR, PIK3CA, ITGAV, KDR, and FOXO3 (RNAseq): downregulation
  expression of STK11 and FOX06 (RNAseq): upregulation
Panc1 cells [2]
  tumor incidence / tumor initiation in NOD/SCID mice: significant reduction; also recorded: inhibited
  tumor volume / size in NOD/SCID mice: significant reduction
Panc1 cells [2]; listed as Pilocarpine
  tumor incidence / tumor initiation in NOD/SCID mice: fewer
  tumor volume / size in NOD/SCID mice: smaller
Panc1 cells [3]
  colonies / sphere formation in soft agar: significantly fewer
Murine K8282 cells; 72 hours
  phosphorylation of EGFR, BRAF, ERK1/2, PI3K and AKT kinases (western blot): significantly less phosphorylated
Murine K8282 cells; single agent alone
  ratios of p-EGFR/EGFR, p-BRAF/BRAF, p-ERK/ERK, p-PI3K/PI3K and p-AKT/AKT (densitometry): significantly decreased
[4]; 72 hours, 0.5% FBS medium
  proliferation (MTT assay): suppressed
[4]; agonist added to antagonist
  increase in proliferation due to muscarinic antagonists: blocked; also recorded: inhibited to some extent
